# What was measured:
# Assay type in all cases: in vivo
# male C57BL6J mice [1] = test: Warm water tail withdrawal assay (thermal nociception)
# Protocol: (§1) The first three graphs in FIG. 2 show the function response of DOR on the surface. An EPAC FRET sensor was used with live cell imaging under physiologic conditions of 37° C. The modulation of the cAMP activity was determined by performing a ratiometric analysis of an the donor fluorophore (Cyan Fluorescent Protein) image divided by the FRET image yielding a blue color for low cAMP and red for high cAMP. DOR was concomitantly visualized by fluorescent tagging. […] The two images on the bottom-right of FIG. 2 show data in an experiment in which mechanical allodynia and tail withdrawal latency was performed in male C57BL6J mice 9-10 weeks old to determine the effects of the DOR agonist SNC-80 in the presence or absence of PTEN inhibition. […] All mice received SNC-80 (10 mg/kg IP). Additionally, pretreatment of mice with the PTEN inhibitor bpv(Phen) increased the antinociceptive effect of the DOR agonist SNC-80. Together, these methods can be used for stimulated DOR delivery as a convergent strategy for improving the efficacy of DOR agonists.
# In this experiment, thermal nociception was determined by using the warm water tail withdrawal assay, with a cut-off of 12 s at 52.5° C. water temperature. After 3 basal measurements, mice were injected with vehicle or bpv(phen)(10 mg/kg SC), and returned to their home cages. […] They were subsequently tested every 15 minutes for 90 minutes. All animals were male C57b16J mice of 9-10 weeks of age, n=8 per group. […] Mechanical allodynia was tested using standard protocols (such as the protocols disclosed by Pradhan et al., 2009, PMID: 1941254) on male C57b16J mice 9-10 weeks old, n=8 per group. Mice were injected with vehicle or bpv(phen)(10 mg/kg), and tested four hours after for reduced allodynia in response to SNC-80. […] Mechanical hyperalgesia was tested in a CFA model for chronic pain. […]
# As shown next in FIG. 12 (left), thermal nociception was determined by using the warm water tail withdrawal assay, with a cut-off of 12 s at 52.5° C. water temperature. […]
# male C57BL6J mice [2] = test: Mechanical allodynia test
# Protocol: as §1, with “Additionally, pretreatment of mice with the PTEN inhibitor bpv(Phen) increased the antinociceptive effect of the DOR agonist SNC-80. Together, these methods can be used for stimulated DOR delivery as a convergent strategy for improving the efficacy of DOR agonists.” left out
# (§2) In this experiment, thermal nociception was determined by using the warm water tail withdrawal assay, with a cut-off of 12 s at 52.5° C. water temperature. […] Four hours post-injection, tail immersion responses were determined and mice were injected with vehicle or SNC80 (10 mg/kg IP). […]
# as §2, with “As shown next in FIG. 12 (left),” for “In this experiment,”
# mice = test: Mechanical hyperalgesia in a CFA model for chronic pain; settings: CFA 72 hours; bpv(phen) 10 mg/kg SC, four hours later SNC 80 3 mg/kg IP
# Protocol: In this experiment, thermal nociception was determined by using the warm water tail withdrawal assay, with a cut-off of 12 s at 52.5° C. water temperature. After 3 basal measurements, mice were injected with vehicle or bpv(phen)(10 mg/kg SC), and returned to their home cages. Four hours post-injection, tail immersion responses were determined and mice were injected with vehicle or SNC80 (10 mg/kg IP). They were subsequently tested every 15 minutes for 90 minutes. All animals were male C57b16J mice of 9-10 weeks of age, n=8 per group. […] Mechanical allodynia was tested using standard protocols (such as the protocols disclosed by Pradhan et al., 2009, PMID: 1941254) on male C57b16J mice 9-10 weeks old, n=8 per group. Mice were injected with vehicle or bpv(phen)(10 mg/kg), and tested four hours after for reduced allodynia in response to SNC-80. […] Mechanical hyperalgesia was tested in a CFA model for chronic pain. After baseline recordings, mice were injected with CFA (13 μl, intraplantar) and were tested 72 hours later. On the test day, mice received either bpv(phen)(10 mg/kg SC) or vehicle. […]
# as §2, with “As shown next in FIG. 12 (left),” for “In this experiment,”
# [3] = 2 hour pretreatment with bpV(phen) 10 mg/kg, SNC-80 10 mg/kg IP, versus vehicle
compound,measurement,setting,value
O.O.O.OO.OO.[K+].[OH-].[V].c1cnc2c(c1)ccc1cccnc12 [bpV(phen)],tail withdrawal latency with SNC-80,male C57BL6J mice [1]; [3],increased compared to vehicle control treated mice
same,analgesic response to PTEN inhibition alone,"male C57BL6J mice [1]; bpV(phen) without SNC-80, mechanical allodynia and tail withdrawal",did not induce an analgesic response
same,tail immersion response versus baseline without SNC80,"male C57BL6J mice [1]; vehicle or bpv(phen) 10 mg/kg SC, no SNC80, 52.5° C., tested every 15 minutes for 90 minutes",did not show any significant deviation from the baseline
same,mechanical allodynia (threshold) with SNC-80,male C57BL6J mice [2]; [3],increased compared to vehicle control treated mice
same,reduced allodynia in response to SNC-80,"male C57BL6J mice [2]; bpv(phen) 10 mg/kg, tested four hours after",showed a response
same,mechanical hyperalgesia response to SNC 80,mice,showed a response to SNC80

# — patent US9823260B2, “Method to increase bioavailability of the delta-opioid receptor for management of pain and neuropsychiatric disorders” (priority 2014, dated 2017)
